Measured values published in PMC12502564, “Evaluation of LLM-generated peptide as foundation template for discovery of effective encrypted AMPs against clinical superbugs” (Microbiology Spectrum, 2025).
No end group written: not given here.

Key:
[1] = tested on: S. aureus ATCC25923; format: cell-based, Staphylococcus aureus
Procedure: (§1) The MIC of all peptides was determined using the microdilution broth method in a 96-well plate. Peptides were dissolved in the DMSO with an initial concentration of 12,800 µg mL^−1. And cells of eight strains were separately suspended in the MHB at a density of approximately 10^5 CFU mL^−1. In the first column of the 96-well plate, 16 µL of peptide and 184 µL of MHB were added to each well to achieve a final concentration of 1,024 µg mL^−1. One-hundred microliters of MHB was added to each of the remaining wells. Then the first column of liquid was mixed well and diluted to the 12th column using the twofold dilution method. One-hundred microliters of prepared bacterial solution was added to all wells, and the 96-well plate was incubated at 37°C for 18–24 h. The MIC was defined as the concentration of the peptide in the well just preceding the first well showing visible turbidity. All experiments were performed in triplicate to ensure reliability.

[2] = tested on: CRAB; test: ROS accumulation assay (DCFH-DA); format: cell-based, carbapenem-resistant Acinetobacter baumannii; conditions: 10 µM DCFH-DA, 2 h incubation
Procedure: Bacteria in the logarithmic growth phase were prepared to OD600 = 0.5. Ten microliters of DCFH-DA was added to 190 µL of bacterial solution to a final concentration of 10 µM and incubated at 37°C for 30 min. After washing with PBS three times, 190 µL of probe-labeled bacterial cells were added to a 96-well plate, and 10 µL of the sample to be tested was added. After incubation for another 2 h, the fluorescence intensity was immediately measured using a microplate reader with an excitation wavelength of 488 nm and an emission wavelength of 525 nm. The antioxidant NAC (6 mM) was used as a control to neutralize the production of ROS.

[3] = tested on: MRSA 2210187; format: cell-based, methicillin-resistant Staphylococcus aureus; conditions: 2210187
Procedure: as §1

[4] = tested on: MRSA; test: MBC determination, MBC/MIC ratio; format: cell-based, methicillin-resistant Staphylococcus aureus; conditions: MBC/MIC ≤4 is considered bactericidal
Procedure: The MBC was determined using the microdilution broth method described above for MIC determination. After identifying the clear wells (no growth), 10 µL of the liquid from these wells was transferred and spread on a nutrient agar plate. The plate was incubated at 37°C for 18–24 h. […] The lowest concentration with no visible growth was considered the MBC.

[5] = tested on: CRAB; test: PI assay, cytoplasmic membrane integrity; format: cell-based, carbapenem-resistant Acinetobacter baumannii; conditions: 1 × MIC, 10^8 CFU mL^−1
Procedure: PI (which is known to stain nuclear chromatin upon cell membrane disruption) assay was carried out to evaluate the ability of AMPs to disrupt the cytoplasmic membrane integrity ([63]). After CRAB was grown to the exponential phase, bacteria cells were harvested and washed three times in washing buffer of 5 mM glucose and 5 mM HEPES (1:1, pH = 7.2) and then re-adjusted to 10^8 CFU mL^−1 in the same buffer. Bacterial suspensions (150 µL/well) were loaded into black-walled, clear-bottom 96-well plates with lids. Following bacterial loading, 50 µL of 10 µM PI was introduced into each well, with 30 min pre-incubation CRAB. Post-incubation fluorescence signals were acquired using 535 nm excitation and 617 nm emission wavelengths. Compounds (10 µL) were then administered to achieve 1 × MIC/10 × MIC-equivalent final concentrations in the dye-loaded bacterial suspensions. Real-time fluorescence monitoring was performed with continuous acquisition during the first 10 min, followed by measurements at 10-min intervals. Negative controls received 10 µL sterile water in lieu of antimicrobial peptides while maintaining equivalent pre-incubation conditions. All experimental conditions were executed with three biological replicates.

[6] = tested on: E. coli ATCC25922; format: cell-based, Escherichia coli
Procedure: as §1

[7] = tested on: HEK293 cells; format: cell-based
Procedure: Cytotoxicity of AMPs was determined using the Cell Counting Kit-8. HEK293 cells, bought from Procell (Wuhan, China), were inoculated in 96-well flat-bottom plates according to 5,000 cells/well in cell culture medium. After 24-h incubation at 37°C with 5% CO2 in atmosphere, medium was replaced with fresh medium and incubated with antimicrobial peptide solutions at various concentrations for 48 h. Cell viability was monitored by adding CCK-8 solution and measuring OD450 after 4 h. Zero-well and control-well were set during this experimental process. All experiments were performed with three independent replicates. The cell survival rate was calculated by the following formula, and the CC50 value of each AMPs was calculated by online tools: https://www.aatbio.com/tools/ic50-calculator. (2) Cell survival rate (%)=OD(AMP)− OD(zero)/OD(control)− OD(zero)×100%

[8] = tested on: all eight bacterial strains; format: cell-based, gram-positive and gram-negative bacteria; conditions: judged from MICs on eight strains
Procedure: as §1

[9] = tested on: CRAB; test: Time-kill curve; format: cell-based, carbapenem-resistant Acinetobacter baumannii; conditions: ~10^5 CFU mL^−1 in MH broth
Procedure: Bacteria in the logarithmic growth phase were diluted to approximately 10^5 CFU mL^−1 in MH broth and treated with peptides, polymyxin B, or vancomycin at final concentrations of 1/2 × MIC, 1 × MIC, 2 × MIC, and 4 × MIC. After the addition of the test compound, samples were taken at 0, 3, 6, 9, 12, and 24 h and serially diluted. Subsequently, 5 µL of the diluted samples were spread on agar plates and incubated at 37°C for 20 h. The bacterial concentration CFU mL^−1 at the corresponding time point of each sample was calculated based on the number of colonies on the agar plate, and the log10 (CFU mL^−1) was plotted against time (h).

[10] = tested on: CRAB 2210186; format: cell-based, carbapenem-resistant Acinetobacter baumannii
Procedure: as §1

[11] = tested on: MRSA 2210187; conditions: 10% fetal bovine serum, room temperature, 1–6 h, then MIC assay, triplicate
Procedure: For serum sensitivity experiments, the peptide to be tested was incubated in 10% fetal bovine serum at room temperature for 1–6 h. After deactivation, the MICs of peptides against CRAB 2210186 and MRSA 2210187 were measured using the MIC assay. All experiments were performed in triplicate to ensure reliability.

Sequence: WLKRILKWIGNKLKW [PL-15]
- MIC [1]: lower than 11 µg mL^−1
- ROS levels (DCF fluorescence) [2]: concentration-dependent surge in ROS levels
- MIC [3]: 2 mg/L
- bactericidal classification by MBC/MIC ratio [4]: bactericidal effects
- PI fluorescence (cytoplasmic membrane integrity) [5]: stronger fluorescence signal compared to polymyxin B and control
- MIC [6]: lower than 11 µg mL^−1
- log2CC50 (50% cell viability) [7]: ≥ 3
- antimicrobial spectrum [8]: broad-spectrum antimicrobial properties
- time to kill CRAB ([9]; 1/2 × MIC): ≤ 6 h
- time to kill CRAB ([9]; 1 × MIC): ≤ 6 h
- time to complete bacterial eradication of CRAB ([9]; 2 × MIC): ≤ 3 h
- time to kill CRAB ([9]; 4 × MIC): ≤ 3 h
- MIC [10]: 4 mg/L
- fold change in MIC after incubation in serum [11]: maximum twofold increase
